Like-named read-outs stand apart in the source and are kept apart here.
Experiments:
[1] = Phase 1 open-label 2-sequence crossover study, single-dose pharmacokinetics of deutetrabenazine metabolites in healthy subjects; type: in vivo, human; conditions: for AUC / Cmax / half-life: both sexes, human, oral, plasma; for AUC / Cmax: healthy subjects, single dose deutetrabenazine 24 mg, % CV in parentheses; for half-life: 24 mg; for AUC (% of Total): share of total circulating DHTBZ exposure after single dose deutetrabenazine 24 mg
Procedure: A phase 1, open-label, 2-sequence crossover study was conducted to evaluate the HTBZ PK profile following administration of valbenazine (40 mg) or deutetrabenazine (24 mg) to a total of 18 healthy male and female subjects.
Subjects received a single dose of valbenazine 40 mg on Day 1 and a single dose of deutetrabenazine 24 mg on Day 16; or received a single dose of deutetrabenazine 24 mg on Day 1 and a single dose of valbenazine 40 mg on Day 16. Valbenazine 40 mg was administered as one 40 mg capsule and deutetrabenazine 24 mg was administered as two 12 mg tablets. Study drug was administered at approximately 0800 hours, approximately 30 minutes after the start of a standard breakfast.
PK parameters were determined using non-compartmental analysis with Phoenix WinNonlin 8.3 software. The in vitro pharmacology of the deuterated HTBZ metabolites was assessed using competitive radioligand binding assays.

[2] = AUSTEDO label; likely similar in CYP2D6 poor metabolizers; cited from earlier work
[3] = metabolites of AUSTEDO, approximate, read-out: half-life (converted)

| Compound | AUC [1] [µg·h/mL] | Cmax [1] [µg/mL] | half-life [1, 3] [h] | AUC (% of Total) [1] [%] | half-life ([1]; after deutetrabenazine administration, read-out: mean half-life (converted)) [h] | increase of exposure when taking a strong CYP2D6 inhibitor [2] |
| --- | --- | --- | --- | --- | --- | --- |
| [2H]C([2H])([2H])Oc1cc2c(cc1OC([2H])([2H])[2H])[C@H]1C[C@@H](O)[C@H](CC(C)C)CN1CC2 [[+]-α-DHTBZ] | 0.011 | 0.0012 | ~6 | 2 | – | – |
| COc1cc2c(cc1OC)[C@@H]1C[C@H](O)[C@@H](CC(C)C)CN1CC2 [α-DHTBZ] | – | – | – | – | – | approximately 3 fold |

Continued, in another order:

| AUC [1] [µg·h/mL] | Cmax [1] [µg/mL] | half-life [1, 3] [h] | AUC (% of Total) [1] [%] | half-life ([1]; after deutetrabenazine administration, read-out: mean half-life (converted)) [h] | Compound | increase of exposure when taking a strong CYP2D6 inhibitor [2] |
| --- | --- | --- | --- | --- | --- | --- |
| 0.396 | 0.0322 | ~12 | 66 | – | [2H]C([2H])([2H])Oc1cc2c(cc1OC([2H])([2H])[2H])[C@@H]1C[C@H](O)[C@@H](CC(C)C)CN1CC2 [[−]-α-DHTBZ, (−)-α-3-isobutyl-9,10-di(methoxy-d3)-1,3,4,6,7, 11b-hexahydro-2H-pyrido[2,1-a]isoquinolin-2-ol] | – |
| 0.0158 | 0.0017 | ~8 | 3 | – | [2H]C([2H])([2H])Oc1cc2c(cc1OC([2H])([2H])[2H])[C@@H]1C[C@@H](O)[C@@H](CC(C)C)CN1CC2 [[−]-β-DHTBZ, (−)-β-3-isobutyl-9,10-di(methoxy-d3)-1,3,4,6,7,11b-hexahydro-2H-pyrido[2,1-a]isoquinolin-2-ol] | – |
| 0.176 | 0.0204 | ~5 | 29 | 7.7 | [2H]C([2H])([2H])Oc1cc2c(cc1OC([2H])([2H])[2H])[C@H]1C[C@H](O)[C@H](CC(C)C)CN1CC2 [[+]-β-DHTBZ, (+)-β-3-isobutyl-9,10-di(methoxy-d3)-1,3,4,6,7,11b-hexahydro-2H-pyrido[2,1-a]isoquinolin-2-ol] | – |
